Consider one compound from patent publication US11466006B2, “Dual selective PI3 delta and gamma kinase inhibitors” (Rhizen Pharmaceuticals SA, priority 2013, dated 2022).

The test system of one assay is caspase-3 activity. The experiment in a line: Apoptosis in leukemic cell lines (in-situ Caspase 3 kit). The assay is classed as cell-based. The note with it: MOLT-4, Jurkat, CCRF-CEM, Hut-78 & HuT-102; 24 hrs. As for the experimental part: Apoptosis in leukemic cells was determined using an in-situ Caspase 3 kit (Millipore, US) as outlined below: • Seed leukemic cells—at a density of 1×10^6 cells/well in a 6 well plate • Add test compound/DMSO at desired concentrations • Incubate the plate for 24 hrs at 37° C. in 5% CO2 incubator • Collect cells in a 2 ml centrifuge tube • Add 1.6 μL of freshly prepared 5× FLICA reagent and mix cells by slightly flicking the tubes • Incubate tubes for 1 hour at 37° C. under 5% CO2 • Add 2 ml of 1× wash buffer to each tube and mix • Centrifuge cells at <400× g for 5 minutes at room temperature. • Carefully remove and discard supernatant, and gently vortex cell pellet to disrupt any cell-to-cell clumping. • Resuspend cell pellet in 300 ul of 1× wash buffer • Place 100 μL of each cell suspension into each of two wells of a black microtiter plate. Avoid creation of bubbles. • Read […] of each microwell using an excitation wavelength of 490 nm and an emission wavelength of 520 nm • Percent increase in caspase-3 activity manifested by an increase in fluorescence compared to the control blank is to be calculated.

The target in assay [1] is T1, PI3Kδ (Homo sapiens, UniProt O00329). Description: Fluorescent (HTRF) determination of PI3 kinase enzyme activity, delta isoform. The assay is classed as biochemical. The arrangement: purchased Millipore (assay kit). Conditions: Table 1, HTRF; read-out: IC50 (nM) Pi3Kδ. The source says:
(§1) Phosphoinositide 3 kinases (PI3K) belong to a class of lipid kinases that play a critical role in the regulation of several key cellular processes. The PI3K are capable of phosphorylating the 3-hydroxy position of phosphoinositols thereby generating second messengers involved in downstream signalling events. The homogenous time resolved fluorescence (HTRF) assay allows detection of 3,4,5-triphosphate (PIP3) formed as a result of phosphorylation of phosphotidylinositol 4,5-biphosphate (PIP2) by PI3K isoforms such as α, β, γ or δ.
(§2) PI3K isoform activity for α, β, γ or δ was determined using a PI3K human HTRF™ Assay Kit (Millipore, Billerica, Mass.) with modifications. All incubations were carried out at room temperature. Briefly, 0.5 μl of 40× inhibitor (in 100% DMSO) or 100% DMSO were added to each well of a 384-well white plate (Greiner Bio-One, Monroe, N.C.) containing 14.5 μl 1× reaction buffer /PIP2 (10 mM MgCl2, 5 mM DTT, 1.38 μM PIP2) mix with or without enzyme, followed by 5 μl/well of 400 μM ATP and incubated for an additional 30 minutes. Reaction was terminated by adding 5 μl/well stop solution (Millipore, Billerica, Mass.). […] HRTF ratio was measured on a microplate reader (BMG Labtech., Germany) at an excitation wavelength of 337 nm and emission wavelengths of 665 and 615 nm with an integration time of 400 msec counting delay of 50 msec.

A further assay concerns the target T2, Pi3K α (Homo sapiens, UniProt P42336).
T2 construct: purchased Millipore (assay kit)
The experiment in a line: Fluorescent (HTRF) determination of PI3 kinase enzyme activity, alpha isoform. The assay is classed as biochemical. The note with it: Table 1, HTRF.
Description: as §1, §2
(In general: Time-resolved FRET reads energy transfer from a long-lived donor to a nearby acceptor.)

In assay [2] the target is T1, PI3Kδ. Description: Anti-FcεR1 induced CD63 expression in basophils from human whole blood. The assay is classed as cell-based. Details: Add 49 μl of patient's whole blood to each tube; endogenous in cells; host or cells: basophils in human whole blood. The note with it: n=10, read-out: EC50 for FcεR1 (PI3K δ), CD63 positive basophils. The method, then:
PI3K δ and γ signalling in basophils manifested by an alteration of anti-FcεR1 or fMLP induced CD63 expression is a useful pharmacodynamic marker determined using the Flow2CAST® kit (Buhlmann Laboratories, Switzerland). Briefly, it involves the following steps: • Mix the anti-coagulated blood sample by inverting the venipuncture tube several times; • Prepare fresh and pyrogen-free 3.5 ml polypropylene or polystyrene tubes suitable for Flow Cytometry measurements; • Add 49 μl of patient's whole blood to each tube; • Add 1 μl of 10% DMSO (background) or compound (10% DMSO) to the assigned tubes and mix gently. Incubate at room temperature for 15 minutes; • Pipet 50 μl of the Stimulation buffer (background) or anti-FcεRI Ab or or fMLP to each tube; • Add 100 μl of Stimulation Buffer to each tube; • Mix gently. Add 20 μl Staining Reagent (1:1 mix of FITC-CD63 and PE-CCR3) to each tube; • Mix gently, cover the tubes and incubate for 15 minutes at 37° C. in a water bath. […]
Percent CD63 positive cells within the gated basophil population were determined in different treatment groups and normalized to vehicle control.

The test system of a further assay is Female Wistar rats. The experiment in a line: Lipopolysaccharide-induced rat air pouch model of inflammation. The assay is classed as in vivo. Conditions: Neutrophil, oral, 1 h before LPS, pouch fluid at 6 h, read-out: ED50, reduction of neutrophil migration into the rat air pouch. As for the experimental part: Female Wistar rats (175-200 g) were acclimatized for seven days prior to the start of the experiment Animals were randomly distributed to various groups based on their body weights Animals were anaesthetised with ether and subcutaneous air pouches were made by injecting 20 ml of sterile air under the skin in the intra-scapular area (day 0) and maintained with a second 10-ml injection of sterile-filtered air on day 4. On day 6, oral treatment was commenced 1 h prior to induction of inflammation by s.c. injection of LPS solution on day 6. A volume of 5-ml of LPS solution dissolved in sterile saline (100 μg/kg) was injected into each pouch. Samples of pouch fluid were taken at 6 h after administration of LPS by flushing the pouch with 5 ml of sterile saline and withdrawing 4 ml of fluid. The numbers of leukocytes present in pouch fluid was determined microscopically using a haemocytometer. Differential cell content was determined by microscopic examination of fluid smears stained with Diff-Quik.

The next assay relates to Lewis rats. Description: Collagen induced arthritis in Lewis rats. The assay is classed as in vivo, rat.

T1 sequence (O00329 whole entry, canonical isoform): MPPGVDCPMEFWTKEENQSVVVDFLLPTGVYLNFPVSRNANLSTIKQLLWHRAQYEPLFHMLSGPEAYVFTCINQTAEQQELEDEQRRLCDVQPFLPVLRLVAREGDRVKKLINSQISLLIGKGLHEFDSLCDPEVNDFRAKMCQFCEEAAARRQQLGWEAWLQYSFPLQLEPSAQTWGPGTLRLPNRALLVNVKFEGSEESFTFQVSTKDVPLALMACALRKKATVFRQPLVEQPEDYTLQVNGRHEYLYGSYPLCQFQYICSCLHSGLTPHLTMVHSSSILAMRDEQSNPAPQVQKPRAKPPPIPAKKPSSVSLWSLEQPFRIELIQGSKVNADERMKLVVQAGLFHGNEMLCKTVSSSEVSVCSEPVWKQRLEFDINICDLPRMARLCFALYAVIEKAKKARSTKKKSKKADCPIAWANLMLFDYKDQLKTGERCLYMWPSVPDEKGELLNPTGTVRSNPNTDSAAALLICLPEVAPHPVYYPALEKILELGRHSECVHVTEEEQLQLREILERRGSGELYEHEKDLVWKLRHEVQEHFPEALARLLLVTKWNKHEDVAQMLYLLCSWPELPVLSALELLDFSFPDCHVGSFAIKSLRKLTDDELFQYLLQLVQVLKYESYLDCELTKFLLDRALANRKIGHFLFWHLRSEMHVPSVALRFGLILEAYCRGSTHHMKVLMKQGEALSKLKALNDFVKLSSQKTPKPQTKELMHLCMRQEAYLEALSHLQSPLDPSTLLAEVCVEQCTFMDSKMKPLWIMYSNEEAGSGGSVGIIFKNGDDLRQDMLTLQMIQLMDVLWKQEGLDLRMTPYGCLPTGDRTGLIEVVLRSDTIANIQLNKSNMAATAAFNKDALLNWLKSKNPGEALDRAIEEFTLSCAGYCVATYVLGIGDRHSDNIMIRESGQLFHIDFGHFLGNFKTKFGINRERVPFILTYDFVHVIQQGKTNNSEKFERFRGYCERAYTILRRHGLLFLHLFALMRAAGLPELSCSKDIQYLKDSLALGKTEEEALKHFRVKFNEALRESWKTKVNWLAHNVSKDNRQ
T1 sequence (P27986 whole entry partner, canonical isoform): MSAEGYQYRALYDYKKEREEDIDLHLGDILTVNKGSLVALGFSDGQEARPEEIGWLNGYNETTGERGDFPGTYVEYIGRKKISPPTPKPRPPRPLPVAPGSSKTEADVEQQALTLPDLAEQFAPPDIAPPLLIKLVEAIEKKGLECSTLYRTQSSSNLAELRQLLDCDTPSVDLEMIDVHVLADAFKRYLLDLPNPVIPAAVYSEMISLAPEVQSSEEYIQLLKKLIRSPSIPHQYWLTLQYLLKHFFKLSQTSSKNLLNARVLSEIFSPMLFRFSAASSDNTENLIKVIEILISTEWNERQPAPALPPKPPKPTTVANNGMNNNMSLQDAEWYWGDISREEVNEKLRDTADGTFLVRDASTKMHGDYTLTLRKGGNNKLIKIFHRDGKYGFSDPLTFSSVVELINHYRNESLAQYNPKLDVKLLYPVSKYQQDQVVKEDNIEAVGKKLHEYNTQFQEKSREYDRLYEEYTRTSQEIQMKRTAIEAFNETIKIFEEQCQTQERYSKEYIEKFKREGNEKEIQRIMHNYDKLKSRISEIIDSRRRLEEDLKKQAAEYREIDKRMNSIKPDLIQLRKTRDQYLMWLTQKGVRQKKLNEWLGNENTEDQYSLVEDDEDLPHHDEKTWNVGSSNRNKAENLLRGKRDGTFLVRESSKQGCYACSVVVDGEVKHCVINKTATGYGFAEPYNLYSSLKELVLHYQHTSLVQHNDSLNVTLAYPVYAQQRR
T2 sequence (P42336 whole entry): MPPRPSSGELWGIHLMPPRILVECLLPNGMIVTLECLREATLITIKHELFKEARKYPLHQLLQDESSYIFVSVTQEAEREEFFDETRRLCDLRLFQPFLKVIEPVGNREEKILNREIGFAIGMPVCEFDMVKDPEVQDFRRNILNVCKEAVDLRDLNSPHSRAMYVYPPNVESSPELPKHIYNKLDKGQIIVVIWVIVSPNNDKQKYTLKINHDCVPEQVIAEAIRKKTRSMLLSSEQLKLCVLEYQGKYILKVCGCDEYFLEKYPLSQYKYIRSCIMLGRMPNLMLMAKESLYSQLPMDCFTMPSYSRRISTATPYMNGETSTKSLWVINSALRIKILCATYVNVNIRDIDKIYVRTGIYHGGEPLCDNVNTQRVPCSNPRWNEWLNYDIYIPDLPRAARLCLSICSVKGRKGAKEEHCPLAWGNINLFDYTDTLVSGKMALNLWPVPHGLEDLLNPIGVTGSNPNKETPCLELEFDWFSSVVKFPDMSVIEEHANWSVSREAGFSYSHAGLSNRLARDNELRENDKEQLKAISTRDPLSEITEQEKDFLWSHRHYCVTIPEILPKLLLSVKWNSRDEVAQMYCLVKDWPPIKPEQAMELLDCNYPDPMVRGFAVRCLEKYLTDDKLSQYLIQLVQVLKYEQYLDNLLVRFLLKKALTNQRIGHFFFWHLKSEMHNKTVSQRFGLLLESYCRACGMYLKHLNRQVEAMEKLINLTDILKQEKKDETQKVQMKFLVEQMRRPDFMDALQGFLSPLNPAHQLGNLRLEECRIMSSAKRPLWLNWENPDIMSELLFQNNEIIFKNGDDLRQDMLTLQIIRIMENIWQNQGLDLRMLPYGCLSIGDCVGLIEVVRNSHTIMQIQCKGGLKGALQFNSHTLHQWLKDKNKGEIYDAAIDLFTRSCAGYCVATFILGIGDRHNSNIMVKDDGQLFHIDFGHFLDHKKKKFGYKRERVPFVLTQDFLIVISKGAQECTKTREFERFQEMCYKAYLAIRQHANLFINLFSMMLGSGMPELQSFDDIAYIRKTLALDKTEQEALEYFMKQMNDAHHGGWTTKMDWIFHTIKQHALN
T2 sequence (P27986 whole entry partner): as the sequence (P27986 whole entry partner, canonical isoform) above

A word on the IC50: it is the concentration needed to halve the response being measured. As usually defined, the EC50 is the concentration needed to bring the measured effect to its halfway point. Consider `CC[C@H](Nc1ncnc2[nH]cnc12)c1oc2ccccc2c(=O)c1-c1cccc(F)c1` [Compound A1, (S)-2-(1-(9H-purin-6-ylamino)propyl)-3-(3-fluorophenyl)-4H-chromen-4-one], for which, in the assay on caspase-3 activity, the caspase-3 activity result is given as “dose-dependent induction”. In addition, the IC50 at PI3Kδ [1] is 23.8 nM; at Pi3K α, > 10000 nM. For the same compound, the EC50 at PI3Kδ [2] was < 40 nM. In the assay with Female Wistar rats, the ED50 was 2.6 mg/kg. In addition, the “histological analysis of joints at study end” value in the assay on Lewis rats (15 mg/kg) is listed as “complete structural preservation”. Also, the “individual and summed histopathological scores for knee and ankle” value in the assay with Lewis rats (15 mg/kg/BID) was “significant reduction”. Moreover, the “reduction of knee and ankle swelling” value in the assay on Lewis rats (rat CIA model, dosed therapeutically, oral) is listed as “significant efficacy”.
